Measurements reported in patent US20190105367A1, “ANTIMICROBIAL 4-OXOQUINOLIZINES” (Emergent Product Development Gaithersburg Inc., priority 2011, published 2019).
Converted amounts (≈) assume the structure as drawn. Like-named read-outs stand apart in the source and are kept apart here. One block for each molecule: values may come before it.

What was measured:
[1] = test system: strains of A. baumannii and one strain of Acinetobacter sp.; assay: MIC with sub-inhibitory concentrations (0.25x MIC) of polymyxin B, panel of Acinetobacter strains (Example 4); type: cell-based; conditions: for MIC range with PB (0.25x MIC) Oct. 1, 2008 n = 8: […] polymyxin B, ATCC 19606, A329, A390 and A473 not taken; for MIC range with PB (0.25x MIC) Oct. 14, 2008 n = 11: 0.06 μg/ml polymyxin B, all strains except the ATCC strain
[2] = test system: A. baumannii J2; assay: MIC without and with sub-inhibitory polymyxin B (Example 4); type: cell-based, Acinetobacter baumannii; conditions: for MIC: Acinetobacter baumannii; for MIC without PB/MIC + PB: A. baumannii J2
[3] = test system: Acinetobacter sp. (H064200250); assay: as above; type: cell-based; conditions: for MIC: Acinetobacter
[4] = test system: A. baumannii A329; assay: Preliminary MBC without and with sub-inhibitory polymyxin B (Example 4); type: cell-based, Acinetobacter baumannii; conditions: Acinetobacter baumannii, A329, A. baumannii A329, +0.06 μg/ml PB, 2nd experiment, read-out: MBC
[5] = test system: A. baumannii A387; assay: MIC without and with sub-inhibitory polymyxin B (Example 4); type: cell-based, Acinetobacter baumannii; conditions: for MIC without PB/MIC + PB: A. baumannii A387
[6] = test system: A. baumannii A387; assay: Preliminary MBC without and with sub-inhibitory polymyxin B (Example 4); type: cell-based, Acinetobacter baumannii; conditions: Acinetobacter baumannii
[7] = test system: A. baumannii A390; assay: MIC without and with sub-inhibitory polymyxin B (Example 4); type: cell-based, Acinetobacter baumannii; conditions: +0.06 μg/ml PB, 2nd experiment
[8] = test system: A. baumannii A14; assay: Preliminary MBC without and with sub-inhibitory polymyxin B (Example 4); type: cell-based, Acinetobacter baumannii; conditions: A. baumannii A14, +0.06 μg/ml PB, 2nd experiment
Experimental: (§1) The plates were incubated for 18-20 hours at 37° C. The MBC was read as the lowest concentration at which colony growth was ca. 90% less than the positive control (i.e. usually where single colonies or no colonies were observed).

[9] = test system: A. baumannii A390; assay: as above; type: cell-based, Acinetobacter baumannii; conditions: Acinetobacter baumannii, A390, A. baumannii A390, +0.06 μg/ml PB, 2nd experiment, read-out: MBC
Experimental: as §1

[10] = test system: A. baumannii A473; assay: as above; type: cell-based, Acinetobacter baumannii; conditions: Acinetobacter baumannii, A473, A. baumannii A473, +0.06 μg/ml PB, 2nd experiment, read-out: MBC
Experimental: as §1

[11] = test system: A. baumannii NCTC 13301; assay: as above; type: cell-based, Acinetobacter baumannii; conditions: Acinetobacter baumannii
Experimental: as §1

[12] = test system: A. baumannii A401; assay: MIC without and with sub-inhibitory polymyxin B (Example 4); type: cell-based, Acinetobacter baumannii; conditions: for MIC: Acinetobacter baumannii
[13] = test system: A. baumannii A401; assay: Preliminary MBC without and with sub-inhibitory polymyxin B (Example 4); type: cell-based, Acinetobacter baumannii; conditions: Acinetobacter baumannii
[14] = test system: A. baumannii A472; assay: MIC without and with sub-inhibitory polymyxin B (Example 4); type: cell-based, Acinetobacter baumannii; conditions: for MIC: Acinetobacter baumannii
[15] = test system: A. baumannii A472; assay: Preliminary MBC without and with sub-inhibitory polymyxin B (Example 4); type: cell-based, Acinetobacter baumannii; conditions: Acinetobacter baumannii, preliminary MBC
[16] = test system: A. baumannii A473; assay: MIC without and with sub-inhibitory polymyxin B (Example 4); type: cell-based, Acinetobacter baumannii; conditions: +0.06 μg/ml PB, 2nd experiment
[17] = test system: A. baumannii A489; assay: Preliminary MBC without and with sub-inhibitory polymyxin B (Example 4); type: cell-based, Acinetobacter baumannii; conditions: Acinetobacter baumannii
[18] = test system: A. baumannii NCTC 13301; assay: MIC without and with sub-inhibitory polymyxin B (Example 4); type: cell-based, Acinetobacter baumannii; conditions: for MIC: Acinetobacter baumannii, NCTC13301, read-out: MIC +[…] PB
[19] = test system: A. baumannii NCTC 13301; assay: as above; type: cell-based, Acinetobacter baumannii; conditions: +[…] PB, 2nd experiment; for MIC: Acinetobacter baumannii, NCTC13301, A. baumannii NCTC 13301, read-out: MIC
[20] = test system: A. baumannii A14; assay: as above; type: cell-based, Acinetobacter baumannii; conditions: 1st experiment; for MIC +0.06 μg/ml PB: +0.06 μg/ml polymyxin B
[21] = test system: A. baumannii A14; assay: as above; type: cell-based, Acinetobacter baumannii; conditions: 2nd experiment
[22] = test system: A. baumannii A14; assay: Preliminary MBC without and with sub-inhibitory polymyxin B (Example 4); type: cell-based, Acinetobacter baumannii; conditions: A. baumannii A14; +0.06 μg/ml polymyxin B; preliminary MBC; 1st experiment
[23] = test system: A. baumannii ATCC 19606; assay: MIC without and with sub-inhibitory polymyxin B (Example 4); type: cell-based, Acinetobacter baumannii; conditions: A. baumannii ATCC 19606
[24] = test system: A. baumannii A329; assay: as above; type: cell-based, Acinetobacter baumannii; conditions: A. baumannii A329; +0.06 μg/ml PB; 2nd experiment
[25] = J2, A. baumannii J2, +[…] PB, 2nd experiment, read-out: MIC
[26] = Acinetobacter spp. H064200250 (OXA51), +[…] PB, 2nd experiment, read-out: MIC
[27] = A387, A. baumannii A387, +0.06 μg/ml PB, 2nd experiment, read-out: MBC
[28] = NCTC13301, A. baumannii NCTC 13301, +[…] PB, preliminary MBC, 2nd experiment, read-out: MBC
[29] = A401, A baumannii A 401, +0.06 μg/ml PB, 2nd experiment, read-out: MBC
[30] = A472, A. baumannii A472, +[…] PB, 2nd experiment, read-out: MIC
[31] = A472, read-out: MIC +[…] PB, A. baumannii A472, +[…] polymyxin B, 1st experiment
[32] = A472, A. baumannii A472, +[…] PB, 2nd experiment, read-out: MBC
[33] = A489, A. baumannii A489, +[…] PB, preliminary MBC, 2nd experiment, read-out: MBC
[34] = ratio, PB 0.06 μg/ml, 1st experiment
[35] = A. baumannii A14, +0.06 μg/ml PB

- MIC range with PB (0.25x MIC) Oct. 1, 2008 n = 8 ([1]; 1st experiment): <0.125 to 4 µg/mL
- MIC range with PB (0.25x MIC) Oct. 14, 2008 n = 11 ([1]; 2nd experiment): ≤0.125 to 32 µg/mL
- MIC [2, 25]: ≤ 0.125 µg/mL
- MIC [3, 26]: 0.25 µg/mL (≈ 0.652 µM)
- MIC ([3]; read-out: MIC +[…] PB, Acinetobacter spp. H064200250, +[…] polymyxin B, 1st experiment): 1 µg/mL (≈ 2.61 µM)
- MIC ([5]; Acinetobacter baumannii, A387, read-out: MIC +0.06 μg/ml PB, A. baumannii A387, +0.06 μg/ml polymyxin B, 1st experiment): 1 µg/mL
- MIC ([7]; Acinetobacter baumannii, A390, A. baumannii A390, read-out: MIC): 2 µg/mL (≈ 5.22 µM)
- MIC ([12]; A401, A baumannii A 401, +0.06 μg/ml PB, 2nd experiment, read-out: MIC): 4 µg/mL (≈ 10.4 µM)
- MIC ([12]; A401, read-out: MIC +0.06 μg/ml PB, A baumannii A 401, +0.06 μg/ml polymyxin B, 1st experiment): 4 µg/mL
- MIC [14, 30]: ≤ 0.125 µg/mL
- MIC [14, 31]: ≤ 0.125 µg/mL
- MIC ([16]; Acinetobacter baumannii, A473, A. baumannii A473, read-out: MIC): 2 µg/mL (≈ 5.22 µM)
- MIC [18]: 1 µg/mL (≈ 2.61 µM)
- MIC [19]: 0.25 µg/mL (≈ 0.652 µM)
- MIC +0.06 μg/ml PB [20]: 0.5 µg/mL
- MIC ([21]; Acinetobacter baumannii, A14, A. baumannii A14, without PB, value in parentheses, read-out: MIC read with alamar blue): 2 µg/mL (≈ 5.22 µM)
SMILES: C[C@@H](O)[C@H]1C(=O)N2C(C(=O)O)=C(S[C@@H]3CN[C@H](C(=O)N(C)C)C3)[C@H](C)[C@H]12 [Meropenem]
- MBC [4]: 32 µg/mL (≈ 83.4 µM)
- MBC [6, 27]: 2 µg/mL (≈ 5.22 µM)
- MBC ([6]; A387, read-out: MBC +0.06 μg/ml PB, A. baumannii A387, +0.06 μg/ml polymyxin B, 1st experiment): 1 µg/mL
- MBC [8]: 1 µg/mL (≈ 2.61 µM)
- MBC [9]: 2 µg/mL (≈ 5.22 µM)
- MBC [10]: 2 µg/mL (≈ 5.22 µM)
- MBC [11, 28]: ≤ 0.125 µg/mL
- MBC ([11]; NCTC13301, read-out: MBC +[…] PB): 1 µg/mL (≈ 2.61 µM)
- MBC [13, 29]: 4 µg/mL (≈ 10.4 µM)
- MBC ([13]; A401, read-out: MBC +0.06 μg/ml PB, A baumannii A 401, +0.06 μg/ml polymyxin B, 1st experiment): 4 µg/mL
- MBC [15, 32]: ≤ 0.125 µg/mL
- MBC ([15]; A472, read-out: MBC +[…] PB, A. baumannii A472, +[…] polymyxin B, 1st experiment): ≤ 0.125 µg/mL
- MBC [17, 33]: ≤ 0.125 µg/mL
- MBC ([17]; A489, read-out: MBC +[…] PB, A. baumannii A489, +[…] polymyxin B, preliminary MBC, 1st experiment): 0.5 µg/mL (≈ 1.3 µM)
- MBC +0.06 μg/ml PB [22]: 0.5 µg/mL

SMILES: C[C@H]1COc2c(N3CCN(C)CC3)c(F)cc3c(=O)c(C(=O)O)cn1c23 [Levofloxacin, reference compound]
- Range ratios MIC without PB/MIC with PB Oct. 1, 2008 n = 8 ([1]; 1st experiment): 1-4
- MIC range with PB (0.25x MIC) Oct. 1, 2008 n = 8 ([1]; 1st experiment): 4 to 32 µg/mL
- Range ratios MIC without PB/MIC with PB Oct. 14, 2008 n = 11 ([1]; 2nd experiment): 0.5-8
- MIC range with PB (0.25x MIC) Oct. 14, 2008 n = 11 ([1]; 2nd experiment): 4 to 32 µg/mL
- MIC without PB/MIC + PB ([23]; +0.06 μg/ml PB, 2nd experiment): 1
- MIC without PB/MIC + PB [23, 34]: 1
- MIC without PB/MIC + PB ([2]; +[…] PB, 2nd experiment): 8
- MIC without PB/MIC + PB ([2]; ratio, PB […], 1st experiment): 4
- MIC [2, 25]: 4 µg/mL (≈ 11.1 µM)
- MIC ([2]; J2, read-out: MIC +[…] PB, A. baumannii J2, +[…] polymyxin B, 1st experiment): 8 µg/mL (≈ 22.1 µM)
- MIC without PB/MIC + PB ([3]; Acinetobacter spp. H064200250 (OXA51), +[…] PB, 2nd experiment): 2
- MIC without PB/MIC + PB ([3]; Acinetobacter spp. H064200250, ratio, PB […], 1st experiment): 1
- MIC [3, 26]: 8 µg/mL (≈ 22.1 µM)
- MIC without PB/MIC + PB [24]: 0.5
- MBC [4]: 16 µg/mL (≈ 44.3 µM)
- MIC without PB/MIC + PB ([5]; +0.06 μg/ml PB, 2nd experiment): 1
- MIC without PB/MIC + PB [5, 34]: 1
- MBC [6, 27]: 4 µg/mL (≈ 11.1 µM)
- MIC without PB/MIC + PB ([7]; A. baumannii A390): 2
- MBC [8]: 16.00 µg/mL (≈ 44.3 µM)
- MBC [11, 28]: 4 µg/mL (≈ 11.1 µM)
- MIC without PB/MIC + PB ([12]; A baumannii A 401, ratio, PB 0.06 μg/ml, 1st experiment): 1
- MBC [13, 29]: 8 µg/mL (≈ 22.1 µM)
- MIC without PB/MIC + PB ([14]; A. baumannii A472, ratio, PB […], 1st experiment): 4
- MIC [14, 30]: 4 µg/mL (≈ 11.1 µM)
- MIC [14, 31]: 4 µg/mL (≈ 11.1 µM)
- MBC [15, 32]: 4 µg/mL (≈ 11.1 µM)
- MIC without PB/MIC + PB ([16]; A. baumannii A473): 1
- MBC [17, 33]: 4 µg/mL (≈ 11.1 µM)
- MBC ([17]; A489, read-out: MBC +[…] PB): 8 µg/mL (≈ 22.1 µM)
- MIC without PB/MIC + PB ([18]; A. baumannii NCTC 13301, ratio, PB […], 1st experiment): 2
- MIC [18]: 16 µg/mL (≈ 44.3 µM)
- MIC without PB/MIC + PB ([19]; A. baumannii NCTC 13301): 4
- MIC [19]: 8 µg/mL (≈ 22.1 µM)
- MIC +0.06 μg/ml PB [20]: 32 µg/mL
- MIC without PB/MIC + PB ([20]; ratio, PB 0.06 μg/ml): 1
- MIC [21, 35]: 16.00 µg/mL (≈ 44.3 µM)
- MIC without PB/MIC + PB [21, 35]: 2
- MBC +0.06 μg/ml PB [22]: 32 µg/mL
